Laboratory results as given in patent publication US9943554B2, “Compositions and methods relating to solenopsins and their uses in treating neurological disorders and enhancing physical performance” (priority 2006, dated 2018).
In brackets after ≈: the same amount, converted by molar mass. Where two headings read alike, the source gives them in different places.

Experiments:
Na+ channels = assay: CEREP screen: Na+ channels; type: binding; conditions: SPI-001 10 mM
Experimental: (§1) Recent CEREP screen indicated for SPI-001 ([…]) that it inhibited muscarinic receptors (M1, M2 and M3), Na+ channels and monoamine (NE, DA, and 5-HT) transporters with high affinity (˜90%).

amyloid load = assay: Amyloid (plaque) load in the brain after repetitive administration for 3 months; type: in vivo; conditions: APP transgenic mice; 10 mg/kg orally daily for 3 months; compared to control animals
Excerpt: (§2) The APP mice (male) used in these experiments were designed by microinjection of the human APP gene (with the Swedish and London mutations) into mouse eggs under the control of the platelet-derived growth factor B (PDGF-B) chain gene promoter. The mice were generated on a C57BL/6 background. Animals were housed in the Medical University of South Carolina Animal Facility under a 12:12 light:dark cycle. Animals were housed in standard non-sterile rodent microisolator cages, with filtered cage tops and housed 4 to a cage. Animals were fed ad libitum and maintained by brother sister mating. Transgenic animals were identified by PCR analysis. The mice generated from this construct develop amyloid deposits starting at 3 months of age. Animals were aged for 3 months and then maintained for 90 days and sacrificed for amyloid quantification.
(§3) SPI-001 was administered to APP transgenic mice at 10 mg/kg for 3 months to determine the effect upon Aβ peptide and amyloid load. Animals were administered SPI-001 orally in 25% PEG daily and examined for abnormal pathology. […] Animals were analyzed for behavioral changes associated with drug treatment (FIG. 7). […] FIG. 8 illustrates the plaque load in the brains of control and SPI-001 treated animals.

[1] = molecular target: T1, monoamine (DA) transporters (Homo sapiens, UniProt Q01959); assay: CEREP screen: DA transporter; type: binding; design: dose or concentration left out as unconfirmed
T1 construct: CEREP
Experimental: as §1

[2] = molecular target: T2, monoamine (NE) transporters (Homo sapiens, UniProt P23975); assay: CEREP screen: NE transporter; type: binding; design: dose or concentration left out as unconfirmed
T2 construct: CEREP
Experimental: as §1

Aβ1-40 peptide [3] = assay: Brain and plasma Aβ1-40 peptide levels in guinea pigs after single oral administration; type: in vivo; conditions: Guinea Pig; single 10 mg/kg oral; compared with Aβ1-42
Experimental: (§4) Animals were dosed once with SPI-001 and then examined at 0, 4, 24, 48 hours and 7 days for AP peptide levels.

[4] = molecular target: T3, muscarinic receptors (M1) (Homo sapiens, UniProt P11229); assay: CEREP screen: muscarinic receptor M1; type: binding; design: dose or concentration left out as unconfirmed
T3 construct: CEREP
T3 sequence (P11229 1-460): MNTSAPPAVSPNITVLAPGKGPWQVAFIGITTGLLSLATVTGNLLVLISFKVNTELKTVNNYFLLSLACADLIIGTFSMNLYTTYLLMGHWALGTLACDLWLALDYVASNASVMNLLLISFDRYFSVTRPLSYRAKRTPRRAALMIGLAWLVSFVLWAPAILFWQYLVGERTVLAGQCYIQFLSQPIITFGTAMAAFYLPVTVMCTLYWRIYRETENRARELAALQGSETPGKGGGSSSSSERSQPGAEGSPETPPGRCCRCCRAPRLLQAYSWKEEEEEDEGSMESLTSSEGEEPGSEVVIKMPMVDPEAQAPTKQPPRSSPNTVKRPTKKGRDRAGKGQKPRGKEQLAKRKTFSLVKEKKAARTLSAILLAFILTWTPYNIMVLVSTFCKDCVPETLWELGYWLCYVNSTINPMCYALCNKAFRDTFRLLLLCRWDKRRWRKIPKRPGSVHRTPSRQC
Experimental: as §1

Solubility of SPI-001 = type: physicochemical; conditions: for solubility: organic solvent or mixture
Experimental: Based on chemical synthesis of SPI-001 and mass spec analysis, the compound has a molecular weight of <500. It is not a protein or peptide, but is a small molecule. SPI-001 is soluble in dimethyl sulfoxide (DMSO) and ethanol to 100 mg/ml. […] SPI-001 can be resuspended in 25% polyethylene glycol (PEG) 400 for oral delivery.

APP transgenic mice [5] = assay: Examination for abnormal pathology after repetitive administration for 3 months; type: in vivo; conditions: 10 mg/kg orally daily for 3 months
Experimental: as §3

Aβ1-42 peptide [6] = assay: Brain and plasma Aβ1-42 peptide levels in APP transgenic mice after single oral administration; type: in vivo
Excerpt: as §2
(§5) FIG. 2 illustrates the effect of SPI-001 on brain Aβ1-42 peptide levels when administered at 10 mg/kg orally to the APP transgenic mice. Animals were dosed once with SPI-001 and then examined at 0, 4, 24 hours and 7 days for A[…] peptide levels (Biosource International). […] The plasma levels were opposite to the brain levels.
(§6) Animals were dosed once with SPI-001 and then examined at 0, 4, 24, 48 hours and 7 days for A[…] peptide levels. […] The plasma levels were opposite to the brain levels.

MSK1 = MSK1 (Homo sapiens, UniProt O75582); assay: Initial studies: MSK1; type: biochemical
[7] = molecular target: T4, muscarinic receptors (M2) (Homo sapiens, UniProt P08172); assay: CEREP screen: muscarinic receptor M2; type: binding; design: dose or concentration left out as unconfirmed
T4 construct: CEREP
T4 sequence (P08172 1-466): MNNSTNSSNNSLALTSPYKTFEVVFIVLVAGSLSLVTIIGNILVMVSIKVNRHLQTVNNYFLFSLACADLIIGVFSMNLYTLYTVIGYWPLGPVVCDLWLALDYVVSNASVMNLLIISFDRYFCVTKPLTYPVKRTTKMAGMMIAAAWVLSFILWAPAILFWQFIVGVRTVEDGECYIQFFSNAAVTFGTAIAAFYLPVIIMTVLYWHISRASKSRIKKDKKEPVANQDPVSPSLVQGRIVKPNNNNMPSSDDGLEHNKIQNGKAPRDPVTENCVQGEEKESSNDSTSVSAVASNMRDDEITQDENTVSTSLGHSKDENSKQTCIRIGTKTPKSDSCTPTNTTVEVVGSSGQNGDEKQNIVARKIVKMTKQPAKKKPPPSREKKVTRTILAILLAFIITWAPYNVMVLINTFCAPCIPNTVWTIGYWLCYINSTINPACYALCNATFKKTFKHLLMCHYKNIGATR
Experimental: as §1

CamK1δ = CamK1δ (Homo sapiens, UniProt Q8IU85); assay: Initial studies: CamK1δ; type: biochemical
C57BL/6 mice = assay: Selectivity and safety profile in C57BL/6 mice; type: in vivo
Experimental: Animals (C57BL/6 mice, 5 mice per group) were treated with SPI-001 at 0, 4, 40, and 400 mg/kg in 25% PEG 400 with a single dose and examined 14 days later.

Pl3 kinase = assay: Initial studies: Pl3 kinase; type: biochemical
Aβ1-42 peptide [8] = assay: Acute administration for 7 days: brain and plasma Aβ1-42 peptide levels; type: in vivo, APP transgenic mice; conditions: 10 mg/kg for 7 days in 25% PEG 400, at 7 days
Experimental: Animals were dosed once with SPI-001 and then examined at 7 days for AP peptide levels.

Aβ1-42 peptide [9] = assay: Brain and plasma Aβ1-42 peptide levels in guinea pigs after single oral administration; type: in vivo; conditions: Guinea Pig, single 10 mg/kg oral
Experimental: as §4

[10] = molecular target: T5, muscarinic receptors (M3) (Homo sapiens, UniProt P20309); assay: CEREP screen: muscarinic receptor M3; type: binding; design: dose or concentration left out as unconfirmed
T5 construct: CEREP
Experimental: as §1

Aβ peptide = Aβ peptide levels in the brain after repetitive administration for 3 months; type: in vivo; conditions: APP transgenic mice; 10 mg/kg orally daily for 3 months; compared to control animals
Excerpt: as §2, §3

APP transgenic mice [11] = assay: Morris water maze test in APP mice treated for 90 days; type: in vivo; conditions: 10 mg/kg orally in 25% PEG daily for 3 months (90 days)
Experimental: Morris water-maze testing. All mice were tested once in the Morris water maze test at the end of the experiment. Mice were trained in a 1.2 m open field water maze. The pool was filled to a depth of 30 cm with water and maintained at 25° C. The escape platform (10 cm square) was placed 1 cm below the surface of the water. During the trials, the platform was removed from the pool. The cued test was carried out in the pool surrounded with white curtains to hide any extra-maze cues. All animals underwent non-spatial pretraining (NSP) for three consecutive days. These trials were to prepare the animals for the final behavioral test to determine the retention of memory to find the platform. These trials were not recorded (for training purposes only). For the training and learning studies, the curtains were removed to add extra-maze cues (this allows for the identification of animals with swimming impairments). On day 1, the mice were placed on the hidden platform for 20 seconds (trial 1), for trials 2-3 animals were released in the water at a distance of 10 cm from the cued-platform or hidden platform (trial 4) and allowed to swim to the platform. […]
SPI-001 was administered to APP transgenic mice at 10 mg/kg for 3 months to determine the effect upon Aβ peptide and amyloid load. […] Animals were analyzed for behavioral changes associated with drug treatment (FIG. 7). […]

Aβ1-40 peptide [12] = assay: Brain and plasma Aβ1-40 peptide levels in APP transgenic mice after single oral administration; type: in vivo; conditions: single 10 mg/kg oral, compared with Aβ1-42
Excerpt: as §2, §5, §6

MAPKAPK2 pathways = assay: Initial studies: MAPKAPK2 pathways; type: biochemical
[13] = PK profile in plasma and brain of APP transgenic animals; type: in vivo, APP transgenic mice; conditions: orally 10 mg/kg
Experimental: For PK profile, the APP transgenic animals were administered SPI-001, and blood samples and brain tissue were collected and subjected to drug analysis.

[14] = molecular target: T6, monoamine (5-HT) transporters (Homo sapiens, UniProt P31645); assay: CEREP screen: 5-HT transporter; type: binding; design: dose or concentration left out as unconfirmed
T6 construct: CEREP
Experimental: as §1

[15] = 400 mg/kg in 25% PEG 400 for 14 days
[16] = C57BL/6 mice, single dose 4, 40 and 400 mg/kg in 25% PEG 400, examined 14 days later

Chain of CamK1δ (Q8IU85 whole entry): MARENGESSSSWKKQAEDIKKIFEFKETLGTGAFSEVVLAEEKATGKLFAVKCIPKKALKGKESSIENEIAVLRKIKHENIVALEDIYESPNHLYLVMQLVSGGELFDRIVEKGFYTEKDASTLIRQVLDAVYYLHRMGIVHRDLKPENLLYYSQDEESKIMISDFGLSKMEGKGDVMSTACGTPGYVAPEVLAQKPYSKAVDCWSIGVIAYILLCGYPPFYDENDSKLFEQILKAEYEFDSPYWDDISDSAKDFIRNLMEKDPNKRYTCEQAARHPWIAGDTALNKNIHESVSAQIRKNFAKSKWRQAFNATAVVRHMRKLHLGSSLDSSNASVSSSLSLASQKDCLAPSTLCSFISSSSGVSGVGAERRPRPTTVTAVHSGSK
T1 sequence (Q01959 whole entry): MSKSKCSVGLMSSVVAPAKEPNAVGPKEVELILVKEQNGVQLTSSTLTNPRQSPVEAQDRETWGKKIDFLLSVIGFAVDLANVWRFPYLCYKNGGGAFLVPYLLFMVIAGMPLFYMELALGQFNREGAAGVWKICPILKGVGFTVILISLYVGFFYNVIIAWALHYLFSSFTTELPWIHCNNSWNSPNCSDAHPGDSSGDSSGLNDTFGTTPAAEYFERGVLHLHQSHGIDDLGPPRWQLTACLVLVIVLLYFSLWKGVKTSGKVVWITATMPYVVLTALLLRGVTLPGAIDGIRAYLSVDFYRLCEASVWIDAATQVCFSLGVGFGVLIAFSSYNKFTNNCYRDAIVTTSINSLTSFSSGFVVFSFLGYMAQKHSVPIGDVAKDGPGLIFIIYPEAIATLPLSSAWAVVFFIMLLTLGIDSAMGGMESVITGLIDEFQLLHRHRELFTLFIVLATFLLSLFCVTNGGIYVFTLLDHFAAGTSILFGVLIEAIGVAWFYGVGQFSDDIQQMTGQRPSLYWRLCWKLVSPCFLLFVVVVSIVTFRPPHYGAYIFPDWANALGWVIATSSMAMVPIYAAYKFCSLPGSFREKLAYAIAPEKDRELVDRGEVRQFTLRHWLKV
T5 sequence (P20309 whole entry): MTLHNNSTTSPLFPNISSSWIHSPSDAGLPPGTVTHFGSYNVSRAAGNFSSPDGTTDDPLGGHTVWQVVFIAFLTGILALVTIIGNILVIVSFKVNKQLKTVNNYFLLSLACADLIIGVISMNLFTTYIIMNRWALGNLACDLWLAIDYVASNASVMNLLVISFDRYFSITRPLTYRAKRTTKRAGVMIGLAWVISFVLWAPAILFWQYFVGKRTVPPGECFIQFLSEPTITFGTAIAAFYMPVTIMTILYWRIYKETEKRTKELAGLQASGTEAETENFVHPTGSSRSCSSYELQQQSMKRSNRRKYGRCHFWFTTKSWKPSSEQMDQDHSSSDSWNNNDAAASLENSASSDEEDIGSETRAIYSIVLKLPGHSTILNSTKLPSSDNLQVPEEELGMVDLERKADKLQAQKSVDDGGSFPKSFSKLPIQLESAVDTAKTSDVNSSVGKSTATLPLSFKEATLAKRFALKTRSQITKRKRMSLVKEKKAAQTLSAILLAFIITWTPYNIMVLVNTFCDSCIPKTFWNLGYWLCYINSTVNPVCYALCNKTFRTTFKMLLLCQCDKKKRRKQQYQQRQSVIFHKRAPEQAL
T6 sequence (P31645 whole entry): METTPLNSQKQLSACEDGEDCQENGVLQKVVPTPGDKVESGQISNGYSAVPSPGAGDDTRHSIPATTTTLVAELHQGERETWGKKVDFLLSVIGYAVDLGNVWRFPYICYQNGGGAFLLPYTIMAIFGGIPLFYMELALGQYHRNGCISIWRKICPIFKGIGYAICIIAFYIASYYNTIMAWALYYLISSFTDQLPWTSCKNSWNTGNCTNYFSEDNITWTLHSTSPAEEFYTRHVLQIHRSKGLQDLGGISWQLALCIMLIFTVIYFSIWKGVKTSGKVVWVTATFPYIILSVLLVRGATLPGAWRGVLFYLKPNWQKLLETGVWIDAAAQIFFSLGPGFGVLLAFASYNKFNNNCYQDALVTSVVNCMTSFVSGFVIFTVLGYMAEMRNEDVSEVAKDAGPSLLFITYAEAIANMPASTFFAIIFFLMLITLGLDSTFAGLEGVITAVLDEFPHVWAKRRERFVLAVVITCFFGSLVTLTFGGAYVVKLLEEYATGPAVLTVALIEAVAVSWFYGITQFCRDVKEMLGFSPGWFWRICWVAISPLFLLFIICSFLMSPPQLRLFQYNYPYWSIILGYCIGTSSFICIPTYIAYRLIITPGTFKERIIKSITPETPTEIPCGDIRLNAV
T2 sequence (P23975 whole entry): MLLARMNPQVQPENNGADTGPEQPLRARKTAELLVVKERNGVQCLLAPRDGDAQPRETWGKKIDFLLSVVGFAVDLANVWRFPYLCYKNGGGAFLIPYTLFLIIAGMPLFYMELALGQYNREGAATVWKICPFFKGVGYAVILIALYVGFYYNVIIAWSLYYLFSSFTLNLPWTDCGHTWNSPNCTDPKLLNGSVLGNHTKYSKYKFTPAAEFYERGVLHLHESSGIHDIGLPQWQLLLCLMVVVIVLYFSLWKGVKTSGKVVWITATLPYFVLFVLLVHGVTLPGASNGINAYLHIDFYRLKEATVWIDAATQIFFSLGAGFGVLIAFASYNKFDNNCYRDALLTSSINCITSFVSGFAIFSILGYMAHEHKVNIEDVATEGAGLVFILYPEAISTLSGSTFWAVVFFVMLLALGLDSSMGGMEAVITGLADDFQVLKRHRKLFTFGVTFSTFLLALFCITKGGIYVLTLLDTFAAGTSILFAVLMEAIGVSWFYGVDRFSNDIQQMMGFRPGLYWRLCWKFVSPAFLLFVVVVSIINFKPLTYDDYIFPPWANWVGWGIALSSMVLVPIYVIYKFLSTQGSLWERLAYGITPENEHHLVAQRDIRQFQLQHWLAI
Chain of MSK1 (O75582 whole entry, species assumed): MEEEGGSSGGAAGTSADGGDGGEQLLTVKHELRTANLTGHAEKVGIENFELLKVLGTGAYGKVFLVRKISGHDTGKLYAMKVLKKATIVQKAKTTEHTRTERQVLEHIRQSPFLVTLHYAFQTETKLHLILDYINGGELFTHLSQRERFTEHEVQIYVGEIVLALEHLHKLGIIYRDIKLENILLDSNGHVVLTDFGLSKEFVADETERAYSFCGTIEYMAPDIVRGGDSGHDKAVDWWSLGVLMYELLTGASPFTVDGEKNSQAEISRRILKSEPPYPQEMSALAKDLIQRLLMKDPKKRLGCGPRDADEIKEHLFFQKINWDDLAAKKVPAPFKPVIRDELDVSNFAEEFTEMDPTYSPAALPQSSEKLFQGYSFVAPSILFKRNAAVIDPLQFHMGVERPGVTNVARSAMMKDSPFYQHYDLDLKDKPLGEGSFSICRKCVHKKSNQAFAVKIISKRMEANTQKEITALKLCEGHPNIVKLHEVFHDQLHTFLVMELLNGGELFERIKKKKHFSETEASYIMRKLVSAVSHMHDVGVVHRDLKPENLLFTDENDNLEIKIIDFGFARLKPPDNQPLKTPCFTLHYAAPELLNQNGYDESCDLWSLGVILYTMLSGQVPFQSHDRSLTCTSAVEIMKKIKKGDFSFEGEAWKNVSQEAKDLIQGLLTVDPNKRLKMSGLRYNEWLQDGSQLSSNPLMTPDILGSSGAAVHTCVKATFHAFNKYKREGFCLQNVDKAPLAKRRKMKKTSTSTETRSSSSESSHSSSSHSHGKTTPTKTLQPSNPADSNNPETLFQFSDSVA

For `CCCCCCCCCCC[C@H]1CCC[C@H](C)N1` (relative stereo) [SPI-001, trans-2-methyl 6-n-undecylpiperidine], the “inhibition of Na+ channels” value (Na+ channels) was roughly 90%, the amyloid load (amyloid load) was “significantly reduced” and the inhibition [1] was roughly 90%. The inhibition [2] was roughly 90%, the “brain Aβ1-40 peptide levels” value (Aβ1-40 peptide [3]) was “same levels of decrease in the brain” and the “plasma Aβ1-40 peptide levels” value (Aβ1-40 peptide [3]) was “increase in the plasma”. For the same compound, the inhibition [4] was roughly 90%, the solubility (Solubility of SPI-001; dimethyl sulfoxide (DMSO), read-out: solubility in dimethyl sulfoxide (DMSO)) was 100 mg/mL (≈ 395 mM) and the solubility (Solubility of SPI-001; ethanol, read-out: solubility in ethanol) was 100 mg/mL (≈ 395 mM). For the same compound, the solubility in water (Solubility of SPI-001; water) was “slightly soluble”, the “systemic pathological features (liver, kidney, heart, lungs, intestine)” value (APP transgenic mice [5]) was “did not show any signs of systemic pathological features” and the “brain Aβ1-42 peptide levels” value (Aβ1-42 peptide [6]; single 10 mg/kg oral in 25% PEG 400, 4 hr) was “decreased”. The “plasma Aβ1-42 peptide levels” value (Aβ1-42 peptide [6]; single 10 mg/kg oral, 4 hr) was “increased”, the “brain Aβ1-42 peptide levels” value (Aβ1-42 peptide [6]; single 10 mg/kg oral, 24 hours) was “continued to decrease” and the “plasma Aβ1-42 peptide levels” value (Aβ1-42 peptide [6]; single 10 mg/kg oral, 24 hours) was “continued to increase”. For the same compound, the “brain Aβ1-42 peptide levels” value (Aβ1-42 peptide [6]; single 10 mg/kg oral, 48 hours) was “returned to control levels”, the “plasma Aβ1-42 peptide levels” value (Aβ1-42 peptide [6]; single 10 mg/kg oral, 48 hours) was “returned to control levels” and the “brain Aβ1-42 peptide levels” value (Aβ1-42 peptide [6]; single 10 mg/kg oral, 7 days) was “returned to control levels”. The “plasma Aβ1-42 peptide levels” value (Aβ1-42 peptide [6]; single 10 mg/kg oral, 7 days) was “returned to control levels”, the “effect on MSK1” value (MSK1) was “inhibits” and the inhibition [7] was roughly 90%. The “effect on CamK1δ” value (CamK1δ) was “inhibits”, the “course of body weight changes” value (C57BL/6 mice; [15]) was “stopped by 14 days and reversed” and the gross behavioral deficits (C57BL/6 mice; [15]) was “no gross behavioral deficits”. For the same compound, the “histological abnormalities in the tissues examined” value (C57BL/6 mice; [15]) was “no histological abnormalities”, the “body weight over the 14 days” value (C57BL/6 mice; 400 mg/kg in 25% PEG 400 for 14 days, 25% PEG animals showed a similar profile) was “slight decrease in body weight” and the “gross behavioral deficits upon visual inspection (daily)” value (C57BL/6 mice; [16]) was “no gross behavioral deficits”. For the same compound, the “histological analysis of tissues (brain, liver, kidney, heart, intestine, lungs)” value (C57BL/6 mice; [16]) was “did not show any abnormal structures”, the “effect on Pl3 kinase” value (Pl3 kinase) was “inhibiting” and the “brain Aβ1-42 peptide levels” value (Aβ1-42 peptide [8]; compared to control animals given 25% PEG only) was “decreased”. The “plasma Aβ1-42 peptide levels” value (Aβ1-42 peptide [8]; compared to control levels) was “increased”, the “brain Aβ1-42 peptide levels” value (Aβ1-42 peptide [9]; 4 hr) was “decreased” and the “plasma Aβ1-42 peptide levels” value (Aβ1-42 peptide [9]; 4 hr) was “increased”. For the same compound, the “brain Aβ1-42 peptide levels” value (Aβ1-42 peptide [9]; 24 hours) was “continued to decrease”, the “plasma Aβ1-42 peptide levels” value (Aβ1-42 peptide [9]; 24 hours) was “continued to increase” and the “brain Aβ1-42 peptide levels” value (Aβ1-42 peptide [9]; 48 hours) was “returned to control levels”. The “plasma Aβ1-42 peptide levels” value (Aβ1-42 peptide [9]; 48 hours) was “returned to control levels”, the “brain Aβ1-42 peptide levels” value (Aβ1-42 peptide [9]; 7 days) was “returned to control levels” and the “plasma Aβ1-42 peptide levels” value (Aβ1-42 peptide [9]; 7 days) was “returned to control levels”. For the same compound, the inhibition [10] was roughly 90%, the Aβ peptide levels (Aβ peptide) was “significantly reduced” and the “behavior in the Morris Water Maze” value (APP transgenic mice [11]) was “improvement in behavior”. For the same compound, the “brain Aβ1-40 peptide levels” value (Aβ1-40 peptide [12]) was “same levels of decrease in the brain”, the “plasma Aβ1-40 peptide levels” value (Aβ1-40 peptide [12]) was “increase in the plasma” and the “effect on MAPKAPK2 pathways” value (MAPKAPK2 pathways) was “activating”. For the same compound, the “SPI-001 levels in brain” value [13] was “increased significantly”, the “SPI-001 levels in plasma” value [13] was “increased significantly” and the “time SPI-001 levels were maintained in brain” value [13] was “approximately 24 hours”. The “time SPI-001 levels were maintained in plasma” value [13] was “approximately 24 hours” and the inhibition [14] was roughly 90%.
